# Results reported in patent US4925651A, “Radiofluoro-tyrosine derivatives, the preparation and use thereof” (priority 1988, dated 1990).
# Read-outs that look alike come from different tables or passages of the source.
# What was measured:
# mouse brain [1] = assay: Comparative uptake and incorporation of halogenated amino acids in mouse brain (40 min after i.v. injection); type: in vivo
# Description: (§1) Typically, 0.75 to 1.5 MBq of L-2-[^18 F]-fluorotyrosine in 50 to 100 μl of isotonic solution were injected into the tail vein of NMRI mice.
# (§2) After a defined incubation time, the animals were sacrificed and the brains were removed within 20 s and frozen in liquid nitrogen. Parts of the frontal cortex were removed (about 20 mg), weighed, homogenized in distilled water by ultrasonic treatment and, after 10 s, trichloroacetic acid (TCA) was added (final concentration >10%). The protein fraction precipitated by TCA was spun down and washed 2× with TCA solution, and the radioactivity in the combined supernatants and in the protein pellet was measured.
# (§3) Results of comparative experiments on the incorporation of halogenated amino acids in mouse brain (40 min after i.v. injection) are compiled in the table which follows: […]
# [2] = as above; type: in vivo; details: mouse, in vivo, iv
# Description: as §1, §2, §3
# [3] = system: cerebral protein synthesis; details: Coenen et al., cited from earlier work
# mouse brain [4] = details: 40 min, footnote * Literature data; cited from earlier work
# [5] = system: cerebral proteins (frontal cortex); assay: Fraction of radioactivity incorporated in cerebral proteins (TCA precipitation, frontal cortex) after tail vein injection; type: in vivo, NMRI mice
# Description: as §1, §2
# brain tissue = assay: HPLC investigation of TCA supernatant for free 2-[^18 F]-fluorotyrosine in brain tissue; type: in vivo, NMRI mice; details: for proportion of free (unmetabolized) 2-fluorotyrosine of the total tissue activity: brain tissue supernatant, HPLC; for recovery of the activity: free plus protein-incorporated
# Description: as §1, §2
# The supernatant was investigated by HPLC (for conditions, see Example 1) for the proportion of free 2-[^18 F]-fluorotyrosine. It emerged from this that the activity not incorporated in proteins was present almost entirely as unmetabolized 2-fluorotyrosine.
# tissue = assay: Distribution of radioactivity and metabolite analysis in tissue up to two hours after injection; type: in vivo
# From the text: (§4) Appropriate analysis in the striatum, the area of the brain which is highly permeated by dopaminergic nerve cells, has also ruled out the formation of catecholamines from 2-fluorotyrosine. Thus 2-[^18 F]-fluorotyrosine is an ideal tracer for the quantification of the rate of protein synthesis using a three-compartment model, which is relatively easy to handle mathematically and as is used for 2-[^18 F]-fluorodeoxyglucose in PET studies. The uptake of >1.6% of the injected dose per gram of tissue (see table below) is, moreover, adequate for PET investigations.
# striatum = assay: Analysis for catecholamine formation in the striatum; type: in vivo
# From the text: as §4
# [6] = mouse brain, 40 min after i.v. injection
# [7] = mouse brain, 40 min after i.v. injection, read-out: Uptake
smiles,measurement,setting,value
NC(Cc1ccccc1[18F])C(=O)O (stereo not shown) [2 - ^18 FPhe],Incorporation,"mouse brain [1]; mouse, in vivo, iv",11 ± 2 % of cerebral activity
same,tissue uptake at 40 min,[2],2 ± 0.4 %ID/g
"NC(Cc1ccc([18F])cc1)C(=O)O (stereo not shown) [4 - ^18 FPhe, p-[^18 F]-fluorophenylalanine]",incorporation rate in cerebral protein (in words),[3],relatively low
same,radioactivity in cerebral tissue assigned to an unidentified metabolite pool,[3]; animal model,about 20%
same,Incorporation,"mouse brain [1]; mouse, in vivo, iv",20 ± 2 % of cerebral activity
same,tissue uptake at 40 min,[2],1.5 ± 0.3 %ID/g
"C[C@](N)(Cc1ccc(O)c([123I])c1)C(=O)O [3 - ^123 I-α-MeTyr, 3-iodo-α-methyltyrosine]",Incorporation,"mouse brain [1]; mouse, in vivo, iv",18 ± 1 % of cerebral activity
same,tissue uptake at 40 min,[2],0.8 ± 0.1 %ID/g
NC(Cc1ccc(O)c([123I])c1)C(=O)O (stereo not shown) [3 - ^123 ITyr],Incorporation,"mouse brain [1]; mouse, in vivo, iv",13 ± 4 % of cerebral activity
same,tissue uptake at 40 min,[2],0.2 ± 0.005 %ID/g
NC(Cc1ccc([75Br])cc1)C(=O)O (stereo not shown) [4 - ^75 BrPhe],Incorporation,mouse brain [1]; [6],17 ± 5 % of cerebral activity
same,tissue uptake at 40 min,[2]; [7],2 ± 0.4 %ID/g
"CC(C)C[C@H](N)C(=O)O [^14 C-Leu, leucine]",Incorporation,mouse brain [4],85 ± 4 % of cerebral activity
"N[C@@H](Cc1ccccc1)C(=O)O [^14 C-Phe, phenylalanine]",Incorporation,mouse brain [1]; [6],63 ± 2 % of cerebral activity
"N[C@@H](Cc1ccc(O)cc1[18F])C(=O)O [2 - ^18 FTyr, 2-[^18 F]-fluorotyrosine]",fraction incorporated in cerebral proteins,[5]; 20 min after injection,44±3%
same,fraction incorporated in cerebral proteins,[5]; 60 min after injection,84%
same,incorporation in cerebral proteins (in words),[5]; >1 h after the injection,almost quantitative
same,proportion of free (unmetabolized) 2-fluorotyrosine of the total tissue activity,brain tissue; 20 min,51±3%
same,recovery of the activity,brain tissue; 20 min,95±6%
same,proportion of free (unmetabolized) 2-fluorotyrosine of the total tissue activity,brain tissue; 60 min,11±2%
same,recovery of the activity,brain tissue; 60 min,95±4%
same,chemical form of the activity in brain tissue,brain tissue; HPLC of supernatant,present in brain tissue virtually only in two chemical forms
same,influence from redistributed labeled metabolites from the blood,tissue; in vivo,can be ruled out
same,distribution of radioactivity in tissue,tissue; up to two hours after injection,distributed only over the free fluorinated amino acid and the portion incorporated in protein
same,formation of catecholamines,striatum,ruled out
same,cerebral incorporation rate (in words),mouse brain [1]; after 40 min,comparable to that for the natural amino acids methionine and phenylalanine
same,Incorporation,mouse brain [1]; [6],62 ± 3 % of cerebral activity
same,tissue uptake at 40 min,[2]; [7],1.3 ± 0.005 %ID/g
same,tissue uptake at 40 min,"[2]; refers to table, read-out: uptake of the injected dose per gram of tissue",> 1.6 %ID/g
"N[C@@H](Cc1ccc(O)c(F)c1)C(=O)O [3 - ^18 FTyr, 3-fluorotyrosine]",Incorporation,mouse brain [1]; [6],26 ± 1 % of cerebral activity
same,tissue uptake at 40 min,[2]; [7],0.8 ± 0.005 %ID/g
"CSCC[C@H](N)C(=O)O [^14 C-Met, methionine]",Incorporation,"mouse brain [1]; mouse, in vivo, iv",57 ± 3 % of cerebral activity
NC(Cc1ccccc1[75Br])C(=O)O (stereo not shown) [2 - ^75 BrPhe],Incorporation,"mouse brain [1]; mouse, in vivo, iv",15 ± 1 % of cerebral activity
same,tissue uptake at 40 min,[2],2.4 ± 0.4 %ID/g
